Experimental data published in patent publication US20120065265A1, “ALPHA-2-DELTA LIGANDS FOR NON-RESTORATIVE SLEEP” (Pfizer Inc., priority 2006, published 2012).

Test system: subjects with non-restorative sleep (NRS)
Assay: Randomized, double-blind, placebo- and active-controlled 4-way crossover study in an NRS population: efficacy
Assay type: in vivo, human
Settings: for RSQ-W Total Score, comparison with placebo: one-sided alpha 0.05; for RSQ-W Total Score, LS Mean (primary endpoint): po, 336 h
Protocol: STUDY DESIGN. […] Subjects were subsequently crossed over 3 times to receive the remaining treatments, each for 2 weeks followed by a 1—week washout period. […] Each treatment was administered at least 2 hours after a meal. DIAGNOSIS AND MAIN CRITERIA FOR INCLUSION. Subjects selected for the study were male and/or nonpregnant, nonlactating females between the ages of 18-64 years, inclusive, who regularly (≧3 times/week) awoke un-restored or un-refreshed for at least the previous 3 months, causing significant distress or impairment in social, occupational, or other important areas of functioning during the daytime.
EFFICACY & SAFETY EVALUATIONS. The primary endpoint in this study was the Restorative Sleep Questionnaire—Weekly (RSQ-W) Total Score at the end of each 2-week treatment period. The RSQ-W, below, is a patient-reported outcome measure of morning refreshment over the past week in which larger values of the total score correspond to greater refreshment. All remaining efficacy/outcomes endpoints were considered secondary. Safety data, including adverse event information, clinical laboratory values, physical examination, vital signs, and electrocardiograms (ECGs) were collected during the study.
STATISTICAL METHODS. The Full Analysis Set was used in the analyses of all efficacy/outcome endpoints. […] The Per-Protocol Analysis Set was used for sensitivity analyses of certain efficacy/outcome endpoints as appropriate. […] Protocol deviations included the major inclusion/exclusion criteria assessed prior to randomization and major protocol deviations or violations assessed after randomization. […] The Safety Analysis Set was used in the analyses of the safety data and consisted of all randomized subjects who took any study medication.
Each comparison was done at the nominal alpha=0.05 level (one-sided), recognizing that the probability of committing at least one Type I error could be greater than 0.05 but no more than 0.15.
MODEL-BASED SUMMARY. The primary endpoint in this study was the RSQ-W Total Score at the end of each 2-week treatment period. This endpoint was analyzed using a linear model including sequence, period, and treatment as fixed factors, and subject within sequence and within-subject error as random factors. First-order carryover effects were explored and tested at the 10% nominal level of significance. Pair-wise comparisons were made based on the final linear model. The point estimates and 90% confidence intervals (Cis) for the placebo-adjusted treatment effects were constructed using the least squares (LS) means and appropriate standard errors.
DESCRIPTIVE SUMMARY. For each item and Total Score of the RSQ-W, descriptive statistics were provided by treatment and visit.
For secondary/exploratory purposes, certain secondary efficacy endpoints were analyzed with model-based statistical procedures. […] All comparisons are considered secondary/exploratory, and each was done at the nominal alpha=0.05 level (one-sided). No multiple comparison adjustment was made. All secondary efficacy endpoints were summarized descriptively. For secondary/exploratory purposes, appropriate model-based statistical procedures similar to those for the primary endpoint were used to analyze the following scales and subscales: • Restorative Sleep Questionnaire—Daily (RSQ-D, below): weekly averages of Total Score; • Daytime Consequences of Sleep Questionnaire (DCSQ): Total Score; • Multidimensional Assessment of Fatigue (MAF): Global Fatigue Index, Impact Subscale; • Subjective Sleep Questionnaire (SSQ): Sleep Quality; • Sheehan Disability Scale (SDS): Total Score; • SF-36v2: Mental Component Summary, Physical Component Summary, Vitality Subscale; • Clinical Global Impression of Change (CGIC): Status Score; and • Patient Global Impression of Change (PGIC): Status Score.

[1] = COMPOUND A doses (25 mg and 50 mg)

## C[C@H]1CC(CN)(CC(=O)O)C[C@@H]1C [COMPOUND A, (3S,4S)-(1-aminomethyl-3,4-dimethyl-cyclopentyl)-acetic acid]
COMPOUND A 25 mg
  RSQ-D Total Score at Week 2: 61.5
  RSQ-W Total Score, comparison with placebo: statistically significantly different from placebo
COMPOUND A dose groups, similar level of functioning as with zolpidem
  Evening Functioning Scale: better functioning than while taking placebo
[1]
  MAF Impact Subscale score at Week 2, comparison with placebo: not statistically significantly different from placebo
  RSQ-D Total Score at Week 2, comparison with placebo: no statistically significant differences from placebo
25 mg
  RSQ-W Total Score, LS Mean (primary endpoint): 63.6
50 mg
  RSQ-W Total Score, LS Mean (primary endpoint): 62.5
Subjects with non-restorative sleep, no dose stated
  Treatment effect relative to placebo on the primary endpoint, the RSQ-W (conclusion): positive treatment effect relative to placebo

## Cc1ccc(-c2nc3ccc(C)cn3c2CC(=O)N(C)C)cc1 [zolpidem, reference compound]
Zolpidem 10 mg
  RSQ-W Total Score, comparison with placebo: not statistically significantly different from placebo
